Columns and labels:
Format in all cases: functional
Conditions in all cases: foliar, 120 h
[1] = test system: Spodoptera litura; assay: Insecticidal activity against the Spodoptera litura larvae in compound treated cabbage leaves assessed as mortality at 200 ppm measured after 5 days by leaf dipping method
[2] = test system: Spodoptera litura; assay: Insecticidal activity against the Spodoptera litura larvae in compound treated cabbage leaves assessed as mortality at 50 ppm measured after 5 days by leaf dipping method
[3] = test system: Spodoptera litura; assay: Insecticidal activity against the Spodoptera litura larvae in compound treated cabbage leaves assessed as mortality at 12.5 ppm measured after 5 days by leaf dipping method
[4] = test system: Spodoptera litura; assay: Insecticidal activity against the Spodoptera litura larvae in compound treated cabbage leaves assessed as mortality at 3.1 ppm measured after 5 days by leaf dipping method

## CCc1ccc(C(=O)NN(C(=O)c2cc(C)cc(CF)c2)C(C)(C)C)cc1
[1]
  mortality at 200 ppm: 10%
[2]
  mortality at 50 ppm: 10%
[3]
  mortality at 12.5 ppm: 5%

## C=Cc1cc(C)cc(C(=O)N(NC(=O)c2ccc(CC)cc2)C(C)(C)C)c1
[1]
  mortality at 200 ppm: 10%
[2]
  mortality at 50 ppm: 7%
[3]
  mortality at 12.5 ppm: 1%

## CCc1ccc(C(=O)NN(C(=O)C2C=C(C)CC(C)=C2)C(C)(C)C)cc1
[1]
  mortality at 200 ppm: 10%
[2]
  mortality at 50 ppm: 10%
[3]
  mortality at 12.5 ppm: 4%

## CCc1ccc(C(=O)NN(C(=O)c2cc(C)cc(C=O)c2)C(C)(C)C)cc1
[1]
  mortality at 200 ppm: 0%

## CCc1ccc(C(=O)NN(C(=O)c2cc(C)cc(COC)c2)C(C)(C)C)cc1
[1]
  mortality at 200 ppm: 9%
[2]
  mortality at 50 ppm: 5%

## CCc1ccc(C(=O)NN(C(=O)c2ccc3ncoc3c2)C(C)(C)C)cc1
[1]
  mortality at 200 ppm: 1%

## CCc1ccc(C(=O)NN(C(=O)c2ccc3ocnc3c2)C(C)(C)C)cc1
[1]
  mortality at 200 ppm: 5%

## CCc1ccc(C(=O)NN(C(=O)c2ccc3c(c2)OCCO3)C(C)(C)C)cc1
[1]
  mortality at 200 ppm: 0%

## CCc1ccc(C(=O)NN(C(=O)c2cc(C)cc(CO[Si](C)(C)C(C)(C)C)c2)C(C)(C)C)cc1
[1]
  mortality at 200 ppm: 0%

## CCc1ccc(C(=O)NNC(=O)C2CC(C)CC(C)C2)cc1 (centres undefined)
[1]
  mortality at 200 ppm: 1%
[2]
  mortality at 50 ppm: 0%

## CCc1ccc(C(=O)NN(C(=O)c2cc(C)cc(CCl)c2)C(C)(C)C)cc1
[1]
  mortality at 200 ppm: 7%
[2]
  mortality at 50 ppm: 1%

## CCc1ccc(C(=O)NN(C(=O)c2cc(C)cc(C(F)F)c2)C(C)(C)C)cc1
[1]
  mortality at 200 ppm: 10%
[2]
  mortality at 50 ppm: 10%
[3]
  mortality at 12.5 ppm: 8%

## CCCCOCc1cc(C)cc(C(=O)N(NC(=O)c2ccc(CC)cc2)C(C)(C)C)c1
[1]
  mortality at 200 ppm: 0%

## CCc1ccc(C(=O)NN(C(=O)c2cc(C)cc(C)c2)C(C)(C)C)cc1 [TEBUFENOZIDE]
[1]
  mortality at 200 ppm: 10%
[2]
  mortality at 50 ppm: 10%
[4]
  mortality at 3.1 ppm: 3%
[3]
  mortality at 12.5 ppm: 10%

## CCc1ccc(C(=O)NN(C(=O)c2cc(C)cc(CO)c2)C(C)(C)C)cc1
[1]
  mortality at 200 ppm: 0%
